Legend:
[1] = tested on: IL-17 production in mouse splenocytes; test: Suppressive effect on IL-17 production by IL-23 stimulation in mouse splenocytes; assay type: cell-based; conditions: Splenocyte, 72 h, at 5 μmol/L of the test compound, 10 ng/mL human IL-23, 3 days, read-out: IL-17 production inhibition rate (%)
How it was run: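 Splenocytes from male C57BL/6J mice (3×10^5/well, with 100 U/mL human IL-2) stimulated with 10 ng/mL human IL-23 plus compound (0.1% DMSO) for 3 days at 37 °C. Supernatant IL-17 measured by ELISA; inhibition calculated against unstimulated and IL-23-only wells.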

[2] = tested on: mouse experimental autoimmune encephalomyelitis model; test: Mouse experimental autoimmune encephalomyelitis model; assay type: in vivo; conditions: C57BL/6J mice, vs vehicle
Procedure: Using increase in the neurological symptom score as an index of exacerbation of symptoms, the effect of the cyclic amine derivative (I) or a pharmacologically acceptable salt thereof in a mouse experimental autoimmune encephalomyelitis model was evaluated. The mouse experimental autoimmune encephalomyelitis model was prepared by a partially modified method by Hindinger et al. (Journal of Neuroscience Research, 2006, Vol. 84, p. 1225-1234).
A total of 0.1 mL (0.05 mL on each side) of an MOG35-55 administration solution prepared by mixing a PBS solution containing partial synthetic peptides of myelin oligodendrocyte glycoproteins (MOG35-55; CSBio, Inc.) prepared to a concentration of 4 mg/mL with Freund's complete adjuvant at equal amount was intradermally inoculated to both flank sides of C57BL/6J mice (male, 8 weeks old) (Charles River Laboratories Japan, Inc.). Furthermore, 200 μL of pertussis toxin (Sigma-Aldrich Japan) prepared to a concentration of 1 μg/mL was intraperitoneally administered to the mice on the day of inoculation and 2 days after inoculation of the MOG35-55 administration solution.
After inoculation of the MOG35-55 administration solution, the test compound was administered to the mice. As the test compound, the compound of Example 20, the compound of Example 29, and the compound of Example 57 were used. The compound of Example 20 was suspended in a 0.5 w/v % methylcellulose solution and orally administered once daily at a dose of 3 mg/kg every day from 2 days after inoculation of the MOG35-55 administration solution. […]
After inoculation of the MOG35-55 administration solution, the neurological symptom scores in the groups in which test compound was administered and the corresponding vehicle administration groups were scored (0: normal, 1: limp tail or hind limb weakness, 2: limp tail and hind limb weakness, 3: partial hind limb paralysis, 4: complete hind limb paralysis, 5: moribund state). […]

Structure (SMILES) | inhibition at 5 µM [1] [%] | increase in the neurological symptom score ([2]; 1 mg/kg orally once daily from 13 days after MOG35-55 inoculation, score on the 23rd day, Wilcoxon test P<0.05 (FIG. 2)) | increase in the neurological symptom score ([2]; 1 mg/kg orally once daily from 13 days after MOG35-55 inoculation, score on the 30th day, Wilcoxon test P<0.05 (FIG. 3)) | increase in the neurological symptom score ([2]; 3 mg/kg orally once daily from 2 days after MOG35-55 inoculation, score on the 13th day, Wilcoxon test P<0.05 (FIG. 1))
CN(CC(=O)N1CCCC[C@@H]1C(=O)Nc1ccc(-c2ccccc2OC(F)(F)F)c(Cl)c1)S(C)(=O)=O [Example 29, (R)-N-(2-chloro-2′-(trifluoromethoxy)-[1,1′-biphenyl]-4-yl)-1-(2-(N-methylmethylsulfonamide)acetyl)piperidine-2-carboxamide] | 100 | statistically significantly suppressed |  | 
O=C(Nc1ccc(-c2ccccc2OC(F)(F)F)c(Cl)c1)[C@H]1CCCCN1C(=O)Cn1cnnn1 [Example 57, (R)-1-(2-(1H-tetrazol-1-yl)acetyl)-N-(2-chloro-2′-(trifluoromethoxy)-[1,1′-biphenyl]-4-yl)piperidine-2-carboxamide] | 101 |  | statistically significantly suppressed | 
CC(=O)N1CCCC[C@@H]1C(=O)Nc1ccc(-c2ccccc2OC(F)(F)F)c(Cl)c1 [Example 20, (R)-1-acetyl-N-(2-chloro-2′-(trifluoromethoxy)-[1,1′-biphenyl]-4-yl)piperidine-2-carboxamide] | 99.7 |  |  | statistically significantly suppressed
